Test: Tb3+/DPA microwell plate leakage assay
Conditions: positive control, complete dissolution of membranes
Protocol: The Tb^3+/DPA assay, a high throughput leakage assay developed by Rausch and Wimley, 2001, was employed in order to determine each LLP peptide's ability to disturb lipid membrane integrity. […] To this end, Tb^3+ was entrapped in Large Unilamellar Vesicles composed of 10% POPG: 90% POPC diluted in a KPO4 buffer containing DPA. Only upon membrane disruption was terbium able to come into contact with DPA in the buffer generating a fluorescent complex. Various ratios of peptide:lipid were incubated together in a microwell plate and the resulting fluorescence emissions were monitored under UV irradiation. LLP -1, -2, and -1D peptides used in this study were not NBD labeled, but were N-terminally labeled with a tryptophan residue for quantification.
To prepare Tb^3+ LUVs, lipids were resuspended to 100 mM concentration in 50 mM Tb^3+, 100 mM sodium citrate, 10 mM TES pH 7.2. Gel Filtration on Sephadex G-200 was used to elute LUVs and remove unencapsulated Tb^3+ in a buffer of 10 mM TES and 325 mM NaCl. Final lipid concentrations were determined by phosphate analysis. […] Finally, samples were heated in a water bath with AmMo and ascorbic acid for 10–15 minutes and absorbance at 660 nm was measured. Concentrations were determined by comparison to a standard curve generated using known KPO4 concentrations. […]

Substance: Triton X-100
- leakage of vesicles: 100%

— paper PMC2211469, “Viroporin potential of the lentivirus lytic peptide (LLP) domains of the HIV-1 gp41 protein” (Virology Journal, 2007)
